Reference: patent publication US6514952B1, “Hydantoin derivatives as inhibitors of leucocyte adhesion and as VLA-4 antagonists” (Hoechst Aktiengesellschaft, priority 1996, dated 2003)

target: T1, interaction between VCAM-1 and VLA-4 (Homo sapiens, UniProt P05556+P13612); test: U937/VCAM-1 cell adhesion test (adhesion of U937 cells to hVCAM-1(1-3)-IgG); type: cell-based; conditions: inhibition of adhesion of human U937 cells (ATCC CRL 1593) to hVCAM-1(1-3)-IgG
T1 construct: the VLA-4-integrins, are offered in their natural form as surface molecules on human U937 cells; host or cells: U937 cells (VLA-4, endogenous); hVCAM-1(1-3)-IgG from supernatant of transfected COS cells (ATCC CRL1651)
Excerpt: As a test method for the activity of the compounds of the formula I on the interaction between VCAM-1 and VLA-4, an assay is used which is specific for this interaction. The cellular binding components, i.e. the VLA-4-integrins, are offered in their natural form as surface molecules on human U937 cells (ATCC CRL 1593), which belong to the group of leucocytes. As specific binding components, recombinant soluble fusion proteins, prepared by genetic engineering and consisting of the extracytoplasmic domains of human VCAM-1 and the constant region of a human immunoglobulin of the subclass IgG1, are used.
Assay for the Measurement of the Adhesion of U937 Cells (ATCC CRL 1593) to hVCAM-1(1-3)-IgG
1. Preparation of Human VCAM-1(1-3)-IgG and Human CD4-IgG
A genetic construct for the expression of the extracellular domains of human VCAM-1 was employed, associated with the genetic sequence of the heavy chain of human immunoglobulin IgG1 (hinge, CH2 and CH3 regions), from Dr. Brian Seed, Massachusetts General Hospital, Boston, USA. The soluble fusion protein hVCAM-1(1-3)-IgG contained the throe amino-terminal extracellular immunoglobulin-like domains of human VCAM-1 (Damle and Aruffo, Proc. Natl. Acad. Sci. USA 1991, 88, 6403). CD4-IgG (Zettlmeissl et al., DNA and Cell Biology 1990, 9, 347) served as a fusion protein for negative controls. The recombinant proteins were expressed as soluble proteins after DEAE/dextran-mediated DNA-transfection in COS cells (ATCC CRL1651) according to standard procedures (Ausubel et al., Current protocols in molecular biology, John Wiley & Sons, Inc., 1994).
2. Assay for the Measurement of the Adhesion of U937 Cells to hVCAM-1(1-3)-IgG
2.1 96-well microtiter test plates (Nunc Maxisorb) were incubated at room temperature for 1 hour with 100 μl/well of a goat-anti-human IgG antibody solution (10 μg/ml in 50 mM Tris, pH 9.5). After removing the antibody solution, washing was carried out once with PBS.
2.2 150 μl/well of a blocking buffer (1% BSA in PBS) was incubated on the plates at room temperature for 0.5 hour. […]

T1 sequence (P13612 34-1032): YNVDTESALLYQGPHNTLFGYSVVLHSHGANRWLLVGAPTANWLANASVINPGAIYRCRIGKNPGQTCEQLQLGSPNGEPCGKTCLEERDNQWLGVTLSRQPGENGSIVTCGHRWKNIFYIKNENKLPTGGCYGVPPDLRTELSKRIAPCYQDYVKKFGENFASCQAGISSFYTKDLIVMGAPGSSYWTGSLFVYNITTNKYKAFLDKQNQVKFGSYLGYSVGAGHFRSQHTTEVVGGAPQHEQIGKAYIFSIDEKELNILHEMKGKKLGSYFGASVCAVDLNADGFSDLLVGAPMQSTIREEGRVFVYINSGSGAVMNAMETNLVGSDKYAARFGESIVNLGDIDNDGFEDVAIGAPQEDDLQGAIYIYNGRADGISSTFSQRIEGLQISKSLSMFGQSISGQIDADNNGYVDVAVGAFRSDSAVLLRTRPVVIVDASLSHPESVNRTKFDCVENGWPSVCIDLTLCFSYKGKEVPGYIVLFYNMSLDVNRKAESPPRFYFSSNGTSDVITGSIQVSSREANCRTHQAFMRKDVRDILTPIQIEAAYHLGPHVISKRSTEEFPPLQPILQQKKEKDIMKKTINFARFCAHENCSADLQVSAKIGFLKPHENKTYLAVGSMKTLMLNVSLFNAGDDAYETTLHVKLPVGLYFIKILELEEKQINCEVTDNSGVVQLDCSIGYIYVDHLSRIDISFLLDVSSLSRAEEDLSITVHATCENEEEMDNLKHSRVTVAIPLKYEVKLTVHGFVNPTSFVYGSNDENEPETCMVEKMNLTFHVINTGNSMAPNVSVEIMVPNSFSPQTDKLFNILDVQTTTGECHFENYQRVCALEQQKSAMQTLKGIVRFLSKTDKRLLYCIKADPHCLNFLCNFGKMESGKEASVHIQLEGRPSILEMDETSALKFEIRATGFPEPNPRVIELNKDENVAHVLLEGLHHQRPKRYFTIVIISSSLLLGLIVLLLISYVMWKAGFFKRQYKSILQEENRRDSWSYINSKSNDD
T1 sequence (P05556 21-798): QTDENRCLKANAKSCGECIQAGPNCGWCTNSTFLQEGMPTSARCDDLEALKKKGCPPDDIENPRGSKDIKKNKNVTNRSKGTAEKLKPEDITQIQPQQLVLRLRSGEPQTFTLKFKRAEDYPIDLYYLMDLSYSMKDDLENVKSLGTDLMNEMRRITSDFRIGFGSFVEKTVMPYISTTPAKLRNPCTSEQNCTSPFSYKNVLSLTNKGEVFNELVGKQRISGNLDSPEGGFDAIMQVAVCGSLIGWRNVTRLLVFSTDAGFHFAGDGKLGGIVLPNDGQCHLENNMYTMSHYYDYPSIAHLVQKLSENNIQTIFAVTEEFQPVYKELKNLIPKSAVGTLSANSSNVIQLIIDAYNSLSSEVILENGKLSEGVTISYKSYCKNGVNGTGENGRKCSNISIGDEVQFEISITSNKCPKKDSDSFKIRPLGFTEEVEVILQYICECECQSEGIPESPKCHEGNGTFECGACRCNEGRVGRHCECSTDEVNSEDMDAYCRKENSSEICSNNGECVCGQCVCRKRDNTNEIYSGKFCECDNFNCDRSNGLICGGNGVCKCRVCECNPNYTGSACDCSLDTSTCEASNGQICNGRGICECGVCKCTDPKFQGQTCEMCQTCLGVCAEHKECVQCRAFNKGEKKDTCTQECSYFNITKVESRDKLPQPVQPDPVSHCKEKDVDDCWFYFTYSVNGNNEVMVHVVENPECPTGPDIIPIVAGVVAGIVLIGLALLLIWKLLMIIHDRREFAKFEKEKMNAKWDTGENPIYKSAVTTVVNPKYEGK

Row | IC50 | SMILES
1 | 7.5 µM | CC1(c2ccc(C(N)=O)cc2)C(=O)N(CC(=O)N[C@@H](CC(=O)O)C(=O)N[C@H](C(=O)O)c2ccccc2)C(=O)N1Cc1ccccc1 (stereo partly drawn) [Example 1]
2 | 40 µM | CC1(c2ccc(C3=NCCN3)cc2)C(=O)N(CC(=O)NC[C@H](NC(=O)OCC23CC4CC(CC(C4)C2)C3)C(=O)O)C(=O)N1Cc1ccc2ccccc2c1 (stereo partly drawn) [Example 3, (S)-3-(((R,S)-4-(4-(4,5-Dihydro-2-imidazolyl)phenyl)-3-(2-naphthylmethyl)-4-methyl-2,5-dioxoimidazolidin-1-yl)acetylamino)-2-(1-adamantyl-methyloxycarbonylamino)propionic Acid]
3 | 14.5 µM | CC1(c2ccc(C3=NCCN3)cc2)C(=O)N(CC(=O)N[C@@H](CC(=O)O)C(=O)N[C@H](C(=O)O)c2ccccc2)C(=O)N1Cc1ccc2ccccc2c1 (stereo partly drawn) [Example 2, ((R,S)-4-(4-(4,5-Dihydro-2-imidazolyl)phenyl)-3-(2-naphthylmethyl)-4-methyl-2,5-dioxoimidazolidin-1-yl)acetyl-L-aspartyl-L-phenylglycine]
